Laboratory results taken from patent US8546424B2, “Acetylene derivatives of 5-phenyl-pyrazolopyridine, preparation thereof, and therapeutic use thereof” (Sanofi, priority 2009, dated 2013).

Molecular target: T1, mouse Nurr1 receptor (Mus musculus, UniProt Q06219)
T1 construct: endogenously expressing the mouse Nurr1 receptor; host or cells: Neuro-2A (N2A) mouse neuroblastoma cells stably transfected with 8NBRE-luciferase
T1 sequence (Q06219 whole entry): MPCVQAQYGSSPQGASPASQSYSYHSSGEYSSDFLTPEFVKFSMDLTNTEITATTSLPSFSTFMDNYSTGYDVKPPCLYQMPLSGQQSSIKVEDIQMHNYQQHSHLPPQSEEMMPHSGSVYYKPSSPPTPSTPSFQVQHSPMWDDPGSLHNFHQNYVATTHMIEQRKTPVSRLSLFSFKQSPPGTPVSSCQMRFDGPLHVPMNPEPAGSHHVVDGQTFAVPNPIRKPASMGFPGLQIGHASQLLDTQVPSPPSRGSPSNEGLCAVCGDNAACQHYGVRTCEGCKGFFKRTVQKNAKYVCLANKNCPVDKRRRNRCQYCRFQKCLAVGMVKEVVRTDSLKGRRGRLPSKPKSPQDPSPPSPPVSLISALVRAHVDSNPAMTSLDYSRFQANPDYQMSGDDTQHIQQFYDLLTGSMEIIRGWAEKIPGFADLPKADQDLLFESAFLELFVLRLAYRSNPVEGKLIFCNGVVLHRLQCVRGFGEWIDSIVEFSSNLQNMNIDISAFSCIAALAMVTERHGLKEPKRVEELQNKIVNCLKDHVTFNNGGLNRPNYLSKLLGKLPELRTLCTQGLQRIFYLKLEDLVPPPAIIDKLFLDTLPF
Assay: in vitro activity on N2A cells (8NBRE-luciferase reporter)
Assay type: cell-based
Conditions: N2A-8NBRE cells, 24 hours incubation
Description: The compounds according to the invention have formed the subject of pharmacological assays which make it possible to determine their modulatory effect on NOT. Evaluation of the in vitro Activity on N2A Cells
The activity of the compounds according to the invention was evaluated on a cell line (N2A) endogenously expressing the mouse Nurr1 receptor and stably transfected with the NOT binding response element (NBRE) coupled to the luciferase reporter gene. The assays were carried out according to the procedure described below.
The Neuro-2A cell line comes from a standard commercial source (ATCC). The Neuro-2A clone was obtained, from a spontaneous tumour originating from an A albino mouse strain, by R. J Klebe et al. This Neuro-2A line is subsequently stably transfected with 8NBRE-luciferase. The N2A-8NBRE cells are cultured until confluence in 75 cm^2 culture flasks containing DMEM supplemented with 10% of foetal calf serum, 4.5 g/l of glucose and 0.4 mg/ml of geneticin. After a week of culture, the cells are recovered with 0.25% trypsin for 30 seconds and then resuspended in DMEM without phenol red, containing 4.5 g/l of glucose and 10% of Hyclone delipidized serum, and deposited into transparent-bottom 96-well white plates. […] The plates are subsequently measured in a luminescence counter for microplates after having been sealed with an adhesive film. […]
Work on C#CC(O)c1cccc(-c2ccn3nc(-c4ccc(F)cc4)cc3c2)c1 (racemic) [Compound 2, 1-{3-[2-(4-Fluorophenyl)pyrazolo[1,5-a]pyridin-5-yl]phenyl}prop-2-yn-1-ol] yielded an EC50 of 3 nM.

System: not given
Assay: not given
Conditions: not given
C#CC(O)c1cccc(-c2ccn3nc(-c4ccc(Cl)cc4)cc3c2)c1 (racemic) [Compound 1, 1-{3-[2-(4-Chlorophenyl)pyrazolo[1,5-a]pyridin-5-yl]phenyl}prop-2-yn-1-ol] gave a melting point of 195 to 197 °C.
Compound C#CC(O)c1cccc(-c2ccn3nc(-c4ccc(F)cc4)cc3c2)c1 (racemic) [Compound 2, 1-{3-[2-(4-Fluorophenyl)pyrazolo[1,5-a]pyridin-5-yl]phenyl}prop-2-yn-1-ol] has a melting point of 192 to 194 °C.
CC#CC(O)c1cccc(-c2ccn3nc(-c4ccc(F)cc4)cc3c2)c1 (racemic) [Compound 3, 1-{3-[2-(4-Fluorophenyl)pyrazolo[1,5-a]pyridin-5-yl]phenyl}but-2-yn-1-ol] gave a melting point of 164 to 166 °C.
For C#CC(C)(O)c1cccc(-c2ccn3nc(-c4ccc(F)cc4)cc3c2)c1 (racemic) [Compound 4, 2-{3-[2-(4-Fluorophenyl)pyrazolo[1,5-a]pyridin-5-yl]phenyl}but-3-yn-2-ol], the melting point was 215 to 217 °C.
With C#CC(O)c1ccccc1-c1ccn2nc(-c3ccc(F)cc3)cc2c1 (racemic) [Compound 5, 1-{2-[2-(4-Fluorophenyl)pyrazolo[1,5-a]pyridin-5-yl]phenyl}prop-2-yn-1-ol] the melting point was 104 to 106 °C.
With C#CC(O)c1c(F)ccc(-c2ccn3nc(-c4ccc(F)cc4)cc3c2)c1F (racemic) [Compound 6, 1-{2,6-Difluoro-3-[2-(4-fluorophenyl)pyrazolo[1,5-a]pyridin-5-yl]-phenyl}prop-2-yn-1-ol] the melting point was 151 to 153 °C.
With C#CC(O)c1cccc(-c2ccn3nc(-c4ccccc4F)cc3c2)c1 (racemic) [Compound 7, 1-{3-[2-(2-Fluorophenyl)pyrazolo[1,5-a]pyridin-5-yl]phenyl}prop-2-yn-1-ol] the melting point was 157 to 159 °C.
With C#CC(O)c1cccc(-c2ccn3nc(-c4ccc(C)cc4)cc3c2)c1 (racemic) [Compound 8, 1-[3-(2-{p-Tolyl}pyrazolo[1,5-a]pyridin-5-yl)phenyl]prop-2-yn-1-ol] the melting point was 183 to 185 °C.
Work on C#CC(O)c1cccc(-c2ccn3nc(-c4ccc(F)cc4)cc3c2)c1 (single isomer, unassigned; (+)) [Compound 10, (+)-1-{3-[2-(4-Fluorophenyl)pyrazolo[1,5-a]pyridin-5-yl]phenyl}prop-2-yn-1-ol] yielded a melting point of 139 to 141 °C.
In the case of C#CC(C)(O)c1cccc(-c2ccn3nc(-c4ccc(F)cc4)cc3c2)c1 (single isomer, unassigned; (+)) [Compound 12, (+)-2-{3-[2-(4-Fluorophenyl)pyrazolo[1,5-a]pyridin-5-yl]phenyl}but-3-yn-2-ol], the melting point is reported as 126 to 128 °C.
Compound C#CC(O)c1cccc(-c2ccn3nc(-c4ccc(F)cc4)cc3c2)c1 (single isomer, unassigned; (-)) [Compound 9, (−)-1-{3-[2-(4-Fluorophenyl)pyrazolo[1,5-a]pyridin-5-yl]phenyl}prop-2-yn-1-ol] has a melting point of 147 to 149 °C.
Work on C#CC(C)(O)c1cccc(-c2ccn3nc(-c4ccc(F)cc4)cc3c2)c1 (single isomer, unassigned; (-)) [Compound 11, (−)-2-{3-[2-(4-Fluorophenyl)pyrazolo[1,5-a]pyridin-5-yl]phenyl}but-3-yn-2-ol] yielded a melting point of 122 to 124 °C.
